What was measured:
AMPA receptor = experiment: In vivo electrophysiology: amplitude of field EPSP in dentate gyrus of anesthetized animals
Experimental: (§1) The electrophysiological effects of the invention compounds were tested in vivo in anesthetized animals according to the following procedures. Animals are maintained under anesthesia by phenobarbital administered using a Hamilton syringe pump. Stimulating and recording electrodes are inserted into the perforant path and dentate gyrus of the hippocampus, respectively. Once electrodes are implanted, a stable baseline of evoked responses are elicited using single monophasic pulses (100 μs pulse duration) delivered at 3/min to the stimulating electrode. Field EPSPs are monitored until a stable baseline is achieved (about 20-30 min), after which a solution of test compound is injected intraperitoneally and evoked field potentials are recorded. Evoked potentials were recorded for approximately 2 h following drug administration or until the amplitude of the field EPSP returns to baseline. In the latter instance, it is common that an iv administration is also carried out with an appropriate dose of the same test compound. Invention compounds were assayed in the in vivo electrophysiology assay described above and data for representative test compounds is shown in column 1 in Table 1.
The electrophysiological effects of invention compounds were tested in vivo in anesthetized animals according to the following procedures.
as §1, with “Animals” for “The electrophysiological effects of the invention compounds were tested in vivo in anesthetized animals according to the following procedures. Animals”, “are” for “were”, “compound.” for “compound. Invention compounds were assayed in the in vivo electrophysiology assay described above and data for representative test compounds is shown in column 1 in Table 1.”

Male CD1 mice = experiment: Inhibition of d-Amphetamine stimulated locomotion; assay type: in vivo; conditions: 18 mpk i.p., d-amphetamine 2 mg/kg
Experimental: The ability of the invention compounds to inhibit d-Amphetamine stimulated locomotor activity was assayed according to the following procedure. Male CD1 mice, 25-30 gm body o weight, were brought into the experimental room and allowed at least 30 min of acclamation.
Each mouse was placed into the testing enclosure with an infrared beam array that automatically monitors the animal's activity. Mice were habituated in the testing enclosure for 20 min, and then returned to their home cage. Mice were dosed intraperitoneally with test compound in appropriate vehicle 5 minutes before d-Amphetamine injection (2 mpk). Ten minutes after d-Amphetamine injection, mice were tested for locomotor activity for a total of 15 minutes. The data was computer collected and expressed as “arbitrary movement units.” All data were analyzed by comparing the groups treated with the test compound to the vehicle control group. The data shown is the % inhibition of hyperactivity induced by acute administration of 2 mg/kg d-amphetamine in mice. […]
Male CD1 mice, 25-30 gm body weight, were brought into the experimental room and allowed at least 30 min of acclamation. […] The data was computer collected and expressed as “arbitrary movement units.” All data were analyzed by comparing the groups treated with the test compound to the vehicle control group.

Row | SMILES | melting point [°C] | % increase in the amplitude of the field EPSP in the dentate gyrus of rat (AMPA receptor; 10 mpk i.p.) [%] | % Inhibition of d-amphetamine stimulated locomotion (Male CD1 mice) [%] | % increase in the amplitude of the field EPSP in the dentate gyrus of rat (AMPA receptor; dosed i.v.) [%^3]
1 | O=C(c1ccc2nonc2c1)N1C2CCC1CC2 | 143 to 144 | – | – | –
2 | O=C(c1ccc2nonc2c1)N1C2CCC1CC(O)C2 (stereo not drawn) [5] | 169 to 171 | – | – | –
3 | O=C(c1ccc2nonc2c1)N1C2CCC1CC(O)C2 (stereo not drawn) [6] | 176 to 177 | – | – | –
4 | O=C(c1ccc2nonc2c1)N1C2CCCC1CC2 [Example 1, 8-Azabicyclo[3.2.1]oct-8-yl([2,1,3]-benzoxadiazol-5-yl)methanone] | 128 to 130 | 22 | 69 | –
5 | O=C1CC2CCC(C1)N2C(=O)c1ccc2nonc2c1 [Example 2, 8-([2,1,3]-Benzoxadiazol-5-ylcarbonyl)-8-azabicyclo[3.2.1]octan-3-one] | 164 to 166 | 16 | 40 | –
6 | O=C(c1ccc2nonc2c1)N1C2CCC1CC(F)(F)C2 [Example 3, [2,1,3]-Benzoxadiazol-5-yl(3,3-difluoro-8-azabicyclo[3.2.1]oct-8-yl)methanone] | 165 to 166 | 8 | – | –
7 | O=C(c1ccc2nonc2c1)N1C2C=C(F)CC1CC2 (stereo not drawn) [Example 4, [2,1,3]-benzoxadiazol-5-yl(3-fluoro-8-azabicyclo[3.2.1]oct-2-en-8-yl)methanone] | – | 25 | – | –
8 | O=C(c1ccc2nonc2c1)N1CC2CCC1C2 (stereo not drawn) [Example 7, 2-Azabicyclo[2.2.1]hept-2-yl([2,1,3]-benzoxadiazol-5-yl)methanone] | 92 to 93 | – | – | 20
9 | O=C(c1ccc2nonc2c1)N1CC2CCC1CC2 [Example 9, 2-Azabicyclo[2.2.2]oct-2-yl([2,1,3]-benzoxadiazol-5-yl)methanone] | 138 to 139 | – | – | –
10 | O=C(c1ccc2nonc2c1)N1CC2CC1CO2 (stereo not drawn) [Example 10, [2,1,3]-benzoxadiazol-5-yl(2-oxa-5azabicyclo[2.2.1]hept-5-yl)methanone] | 102 to 104 | – | – | –
11 | O=C(c1ccc2nonc2c1)N1CC2C=CC1C2 (stereo not drawn) [Example 11, 2-Azabicyclo[2.2.1]hept-5-en-2-yl([2,1,3]-benzoxadiazol-5-yl)methanone] | 106 to 108 | – | – | –
12 | O=C(c1ccc2nonc2c1)N1CC2CC1C(Cl)C2Cl (stereo not drawn) [Example 14, [2,1,3]-Benzoxadiazol-5-yl(5,6-dichloro-2-azabicyclo[2.2.1]hept-2-yl)methanone] | 156 to 157 | – | – | –

Reference: patent publication US8263591B2, “Bicyclic amides for enhancing glutamatergic synaptic responses” (Cortex Pharmaceuticals, Inc., priority 2007, dated 2012)
